Data as given in patent US20260284066A1, “TYK2 INHIBITORS AND COMPOSITIONS AND METHODS THEREOF” (LYNK PHARMACEUTICALS CO. LTD., priority 2023, published 2026).
pIC50: −log10 of the molar value. ≈ marks a conversion by molar mass, not a printed value.

Experiments:
JAK1-JH2 domain = biological target: T1, JAK1-JH2 domain (Homo sapiens, UniProt P23458); experiment: Binding activity test for JAK1 JH2 domain (Tb-antibody/tracer FRET); conditions: read-out: JAK1 JH2 Binding IC50
T1 construct: JAK1-JH2 domain or TYK2-JH2 domain enzyme
T1 sequence (P23458 583-855 limits assumed): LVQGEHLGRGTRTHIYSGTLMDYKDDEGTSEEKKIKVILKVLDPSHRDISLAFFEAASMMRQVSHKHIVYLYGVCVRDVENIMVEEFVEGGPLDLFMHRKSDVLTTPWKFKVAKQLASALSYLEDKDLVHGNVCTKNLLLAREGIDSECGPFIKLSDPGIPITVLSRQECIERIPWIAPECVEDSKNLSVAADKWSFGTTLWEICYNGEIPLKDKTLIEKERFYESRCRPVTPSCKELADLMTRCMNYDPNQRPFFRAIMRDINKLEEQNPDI
Protocol: Binding Activity test for JH2 domain of JAK and TYK2
75 nL DMSO for high control and low control.
For low control, add 5 μL/well assay buffer. […] After enzyme system prepared, add 5 μL of Tb-antibody solution into each wells of assay plate. […] After Tb-antibody added, also add 5 μL of tracer into the assay plate. […] Incubate for 60 mins at 25° C. firstly and then continue to incubate the plate at 4° C. overnight. Read by envision in FRET mode. The Luminescence value was recorded by a multi-label reader Envision (PerkinElmer). Inhibition Rate was calculated relative to vehicle (DMSO) treated control wells using following formula:
wherein • RLU_compound=the relative light unit of cells treated with test compounds • RLU_low control=the relative light unit of medium with DMSO only • RLU_high control=the relative light unit of cells treated with DMSO only

TYK2 pathway = experiment: IFN-γ release in NK92 cells stimulated by IL-12 (ELISA); format: cell-based; conditions: Homo sapiens, IL-12 2.5 ng/mL
From the text: IFN-γ Release in NK92 Cells Stimulated by IL-12
Purpose: To evaluate the inhibition activity of TYK2 inhibitors in NK92 cells on TYK2 pathway through ELISA method.

TYK2-JH2 domain = biological target: T2, TYK2-JH2 domain (Homo sapiens, UniProt P29597); experiment: Binding activity test for TYK2 JH2 domain (Tb-antibody/tracer FRET); conditions: for JAK1/TYK2 selectivity: ratio of JAK1 JH2 to TYK2 JH2 binding IC50; for pIC50: read-out: TYK2 JH2 Binding IC50
T2 construct: JAK1-JH2 domain or TYK2-JH2 domain enzyme
T2 sequence (P29597 589-875 limits assumed): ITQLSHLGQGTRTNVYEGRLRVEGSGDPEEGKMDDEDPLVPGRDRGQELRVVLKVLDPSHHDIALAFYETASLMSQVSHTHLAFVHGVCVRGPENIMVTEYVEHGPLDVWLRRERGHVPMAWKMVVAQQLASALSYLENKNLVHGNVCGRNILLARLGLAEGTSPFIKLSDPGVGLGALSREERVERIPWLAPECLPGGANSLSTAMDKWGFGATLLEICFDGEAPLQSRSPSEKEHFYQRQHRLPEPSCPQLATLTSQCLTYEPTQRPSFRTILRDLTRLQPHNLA

Kinetic solubility = format: physicochemical; conditions: aqueous buffer, 100 mM pH 7.4 phosphate buffer, 1% DMSO, room temperature, read-out: Kinetics Solubility_PBS7.4
Protocol: Aliquots of 8 μL of reference and test compound stock solutions (10 mM/5 mM) are added into 792 μL of 100 mM pH 7.4 phosphate buffer. The final DMSO concentration is 1%. Sample tubes are shaken for 2 hours at 1000 rpm at room temperature. Samples are centrifuged at 12000 rpm for 10 min to precipitate un-dissolved particles. And transfer the supernatants to a new tube or plate. Add 5 μL of samples (no diluted, 10 times diluted and 100 times diluted) and standard curve samples to 95 μL of ACN containing IS for LC-MS/MS analysis.

[1] = system: Ba/F3-FL-TYK2-P760L cells; experiment: Anti-proliferative assay in Ba/F3-FL-TYK2-P760L cells (Cell-Titer Glo); format: cell-based
Protocol: These engineered Ba/F3-FL-TYK2-P760L cells were used to monitor JAK inhibitory activities of the compounds in the cellular. […] Cells were seeded at 2000/well of white flat bottom 96-well plates. The well containing medium only was used as background control. […] The test compounds were dissolved in DMSO to a stock concentration of 20 mM. […] The final DMSO concentration was 0.1%. […] The viability was measured by cellular ATP determination using the Cell-Titer Glo luciferase reagent (Promega). The Luminescence value was recorded by a multi-label reader Envision (PerkinElmer). Inhibition Rate was calculated relative to vehicle (DMSO) treated control wells using following formula:
wherein • RLU_compound=the relative light unit of cells treated with test compounds • RLU_blank=the relative light unit of medium with DMSO only • RLU_control=the relative light unit of cells treated with DMSO only

[2] = Microsomal metabolic stability assay; format: in vitro ADME, human; conditions: for microsomal CLint at 1 µM / half-life at 1 µM: human, liver microsomes, pH 7.4, human liver microsomes 0.5 mg/mL; for microsomal CLint at 1 µM: read-out: Human LM Clint; for half-life at 1 µM: read-out: Human LM T½
Protocol: Microsomal Metabolic Stability Assay
Microsomes were pre-incubated with test compound or control compounds for 5 min at 37° C. in 100 mM potassium phosphate buffer, pH 7.4, 1.0 mM EDTA. The reaction was initiated by addition of 15 μL of the NADPH regenerating system to 30 μL of each incubation mixture per time point. The final incubation condition was composed of 0.5 mg/mL microsomal protein, 1 μM test article/positive control, 2 mM NADPH. The 0-minute samples were prepared by addition of a 30 μL aliquot of each incubation mixture to 135 μL quench reagent to precipitate proteins. And then a 15 μL aliquot of the NADPH regenerating system was added. At 5, 15, 30 and 45 minutes, the reaction will be stopped by the addition of cold acetonitrile solution containing internal standard. The samples taken at all time points were centrifuged at 5000×g for 15 minutes. 50 μL of supernatant are taken into 96-well assay plates pre-added with 50 μL ultrapure water, and then analyzed by LC/MS/MS.
Concentrations of test articles, control compounds in the samples were determined by using LC/MS/MS method. Plotting of the chromatograms and peak area integrations are carried out by Analyst (AB Sciex).
In the determination of the in vitro elimination constant (ke) of the control compounds, the analyte/internal standard peak area ratios will be converted to percentage remaining (% Remaining) with the following equation:
The CLint of microsomes was calculated using the formula: CLint (mic)=0.693/T1/2/mg microsome protein per mL. The slope was measured by the natural logarithm of the percentage of the residual compound and time, T1/2 was calculated according to the following formula.

TYK2 = biological target: T3, TYK2 (Homo sapiens, UniProt P29597); experiment: TYK2 kinase activity, microfluidic assay (Caliper); format: biochemical; conditions: TYK2 20 nM, 1 mM ATP
T3 construct: purchased Carna Biosciences
T3 sequence (P29597 897-1176 limits assumed): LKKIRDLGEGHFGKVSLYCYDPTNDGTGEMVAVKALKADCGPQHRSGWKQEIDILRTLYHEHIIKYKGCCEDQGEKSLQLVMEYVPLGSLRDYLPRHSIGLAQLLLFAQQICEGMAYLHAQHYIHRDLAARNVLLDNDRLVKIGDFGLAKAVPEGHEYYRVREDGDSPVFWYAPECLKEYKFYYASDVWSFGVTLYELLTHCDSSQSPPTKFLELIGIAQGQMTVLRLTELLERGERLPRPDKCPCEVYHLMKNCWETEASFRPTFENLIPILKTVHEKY
Protocol: (§1) Testing for JAK1, JAK2 and TYK2 Kinase Activities
(§2) JAK activity was determined in the reaction buffer 50 mM HEPES, 0.01% Brij35, 10 mM MgCl2, 2 mM DTT by a microfluidic assay. The phosphorylation of a FAM labeled peptide substrate was monitored in the Caliper EZ Reader II (Perkin Elmer). The assay condition for each batch of enzyme (Carna Biosciences) was optimized to obtain 10% conversion rate of peptide substrate.
(§3) The test compounds were dissolved in DMSO to a stock concentration of 10 mM. Three-fold serially diluted compounds with top concentration of 5 μM were pre-incubated with JAK1, JAK2 or TYK2 for 10 min at ambient temperature. The final DMSO concentration of assay mixture was 1%. […] The reaction was stopped by adding 50 mM EDTA.
(§4) And the well without compound but with equivalent DMSO was defined as no inhibition. The percent inhibition was calculated by the following formula:
(§5) wherein • Conversion %_max=the conversion rate in the positive well without addition of compound • Conversion %_sample=the conversion rate of test compounds • Conversion %_min=the conversion rate in the well without addition of enzyme
(§6) The dose-response (percent inhibition) curve was plotted and IC50 values were determined by GraphPad software. The IC50 values of tested compounds were list in Table 3.

JAK2 = biological target: T4, JAK2 (Homo sapiens, UniProt O60674); experiment: JAK2 kinase activity, microfluidic assay (Caliper); format: biochemical; conditions: JAK2 1.5 nM, 1 mM ATP
T4 construct: purchased Carna Biosciences
T4 sequence (O60674 849-1124 limits assumed): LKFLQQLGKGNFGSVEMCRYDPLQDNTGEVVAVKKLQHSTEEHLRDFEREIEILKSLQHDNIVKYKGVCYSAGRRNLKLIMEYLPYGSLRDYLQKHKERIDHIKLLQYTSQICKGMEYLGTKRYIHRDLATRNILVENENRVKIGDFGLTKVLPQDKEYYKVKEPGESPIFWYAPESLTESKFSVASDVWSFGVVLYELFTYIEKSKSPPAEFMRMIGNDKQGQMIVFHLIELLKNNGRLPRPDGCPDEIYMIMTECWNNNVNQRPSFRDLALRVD
Protocol: as §1, §2, §3, §4, §5, §6

JAK1 = biological target: T5, JAK1 (Homo sapiens, UniProt P23458); experiment: JAK1 kinase activity, microfluidic assay (Caliper); format: biochemical; conditions: JAK1 10 nM, 1 mM ATP
T5 construct: purchased Carna Biosciences
T5 sequence (P23458 875-1153 limits assumed): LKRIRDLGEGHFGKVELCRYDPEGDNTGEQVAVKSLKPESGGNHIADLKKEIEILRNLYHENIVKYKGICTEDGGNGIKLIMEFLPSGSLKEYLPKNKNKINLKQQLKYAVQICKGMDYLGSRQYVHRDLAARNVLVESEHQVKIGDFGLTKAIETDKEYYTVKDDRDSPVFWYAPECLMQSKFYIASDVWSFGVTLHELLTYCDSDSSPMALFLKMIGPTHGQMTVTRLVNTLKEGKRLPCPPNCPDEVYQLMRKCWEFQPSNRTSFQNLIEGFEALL
Protocol: as §1, §2, §3, §4, §5, §6

pSTAT1 = experiment: Phosphorylation inhibition of STAT in human whole blood (IFN-alpha stimulated, flow cytometry); format: cell-based; conditions: T-cell, CD3+ T cells, read-out: pSTAT1 inhibition in hWB (IC50)
Protocol: Phosphorylation Inhibition of STAT in Human Whole Blood Testing: The inhibitory potential of test articles in human whole blood assay was evaluated by the method of flow cytometry. IFN-alpha will activate JAK1 and TYK2 kinase in T cells by binding to IFN receptors, and then lead to phosphorylation of STAT1 and STAT2. The phosphorylated STAT1 enter nuclear and promote transcription and expression of IFN-gamma. To evaluate the efficacy of TYK2i in T cells, freshly collected human whole blood will be stimulated with certain unit of human IFN-alpha (Universal Type I IFN (1MU), R&D, 11200-2) for 20 mins in incubator. After stimulation, fix cells with PhosflowTM Fix Buffer I (BD, 557870), and then collect fixed cells by centrifugation (500 g, 8 min). Wash cells once with pre-cooled PBS, and then permeabilize cells with cold Perm Buffer III buffer (BD, 558050) for 45 mins on ice. Collect cells by centrifugation (600 g, 8 min) and washed twice with cold PBS. Stain cells with anti-human CD3(FITC Mouse Anti-Human CD3, BD, 555332) and anti-pSTAT1_Y701 (Alexa Fluor 647 Mouse Anti-Stat1 ([…]), BD, 612597) antibodies. Detect pSTAT1 by flow cytometry (CytoFlex S) and analyze data with FlowJo and GraphPad Prism 8 software. IC50 values of test articles were determined using 4-parameter logistic equation.

[3] = human liver microsomes 0.5 mg/mL, 1 μM

In the case of `[2H]C([2H])([2H])NC(=O)c1cnc(NC(=O)C2CC2)cc1Nc1ccc2ccn(CC(C)(F)F)c2c1OC` [Example 17, 6-(Cyclopropanecarboxamido)-4-((1-(2,2-difluoropropyl)-7-methoxy-1H-indol-6-yl)amino)-N-(methyl-d3)nicotinamide], the pIC50 (JAK1-JH2 domain) was 7.38, the pIC50 (TYK2 pathway) was 7.66 and the JAK1/TYK2 selectivity (TYK2-JH2 domain) was 121.60. It also gave a pIC50 (TYK2-JH2 domain) of 9.47 and a solubility kinetic at 2 h (Kinetic solubility) of 11.1 µM (≈ 5.12 µg/mL).

With `[2H]C([2H])([2H])NC(=O)c1cnc(NC(=O)C2CC2)cc1Nc1ncn2ncc(C(C)C(F)(F)F)c2c1OC` (single isomer, unassigned) [Example 5B, (S*)-6-(Cyclopropanecarboxamido)-4-((4-methoxy-3-(1,1,1-trifluoropropan-2-yl)pyrazolo[1,5-c]pyrimidin-5-yl)amino)-N-(methyl-d3)nicotinamide] the pIC50 [1] was 7.21, the pIC50 (JAK1-JH2 domain) was 6.85 and the JAK1/TYK2 selectivity (TYK2-JH2 domain) was 716.05. The pIC50 (TYK2-JH2 domain) was 9.71, the “Human LM Clint” value [2, 3] was 47.61 µL/min/mg and the “Human LM T½” value [2, 3] was 29.11 min.

With `CNC(=O)c1cnc(NC(=O)C2CC2)cc1Nc1ncc2cnn(CC(C)(F)F)c2c1OC` [Example 23, 6-(Cyclopropanecarboxamido)-4-((1-(2,2-difluoropropyl)-7-methoxy-1H-pyrazolo[4,3-c]pyridin-6-yl)amino)-N-methylnicotinamide] the pIC50 (JAK1-JH2 domain) was 6.90, the pIC50 (TYK2 pathway) was 7.76 and the pIC50 (TYK2) was < 4.70. The JAK1/TYK2 selectivity (TYK2-JH2 domain) was 398.70, the pIC50 (TYK2-JH2 domain) was 9.50 and the pIC50 (JAK2) was < 4.70. For the same molecule, the pIC50 (JAK1) was < 4.70.

Molecule `[2H]C([2H])([2H])NC(=O)c1cnc(NC(=O)C2CC2)cc1Nc1ncc2cnn(C(C)C(F)(F)F)c2c1OC` (stereo not drawn) [Example 3, 6-(Cyclopropanecarboxamido)-4-((7-methoxy-1-(1,1,1-trifluoropropan-2-yl)-1H-pyrazolo[4,3-c]pyridin-6-yl)amino)-N-(methyl-d3)nicotinamide] has a pIC50 [1] of 6.78, a pIC50 (JAK1-JH2 domain) of 6.92 and a JAK1/TYK2 selectivity (TYK2-JH2 domain) of 177.55. For the same molecule, the pIC50 (TYK2-JH2 domain) was 9.17, the microsomal CLint at 1 µM [2] was 5.8 µL/min/mg and the half-life at 1 µM [2] was 239 min.

`[2H]C([2H])([2H])NC(=O)c1cnc(Nc2ccc(N3CCOCC3)cn2)cc1Nc1ccc2cnn(CC(C)(F)F)c2c1OC` [Example 4, 4-((1-(2,2-Difluoropropyl)-7-methoxy-1H-indazol-6-yl)amino)-N-(methyl-d3)-6-((5-morpholinopyridin-2-yl)amino)nicotinamide] showed a pIC50 (pSTAT1) of 6.82, a pIC50 (JAK1-JH2 domain) of 8.07 and a pIC50 (TYK2 pathway) of 7.85. For the same molecule, the pIC50 (TYK2) was < 4.70, the JAK1/TYK2 selectivity (TYK2-JH2 domain) was 51.23 and the pIC50 (TYK2-JH2 domain) was 9.78. For the same molecule, the pIC50 (JAK2) was < 4.70, the solubility kinetic at 2 h (Kinetic solubility) was 61.8 µM (≈ 34.3 µg/mL) and the pIC50 (JAK1) was < 4.70.

For `[2H]C([2H])([2H])NC(=O)c1cnc(NC(=O)C2CC2)cc1Nc1ncn2ncc(C(C)C(F)(F)F)c2c1OC` (single isomer, unassigned) [Example 5A, (R*)-6-(Cyclopropanecarboxamido)-4((4-methoxy-3-(1,1,1-trifluoropropan-2-yl)pyrazolo[1,5-c]pyrimidin-5-yl)amino)-N-(methyl-d3)nicotinamide], the pIC50 [1] was < 5.30, the pIC50 (JAK1-JH2 domain) was < 6.53 and the JAK1/TYK2 selectivity (TYK2-JH2 domain) was >197.55. The pIC50 (TYK2-JH2 domain) was 8.82, the microsomal CLint at 1 µM [2] was 57.5 µL/min/mg and the half-life at 1 µM [2] was 24.1 min.

In the case of `[2H]C([2H])([2H])NC(=O)c1cnc(NC(=O)C2CC2)cc1Nc1ncn2ncc(C(C)C(F)(F)F)c2c1OC` (stereo not drawn) [Example 5, 6-(Cyclopropanecarboxamido)-4-((4-methoxy-3-(1,1,1-trifluoropropan-2-yl)pyrazolo[1,5-c]pyrimidin-5-yl)amino)-N-(methyl-d3)nicotinamide], the pIC50 [1] was 7.28, the pIC50 (JAK1-JH2 domain) was 6.80 and the JAK1/TYK2 selectivity (TYK2-JH2 domain) was 590.59. The pIC50 (TYK2-JH2 domain) was 9.57, the “Human LM Clint” value [2, 3] was 50.06 µL/min/mg and the half-life at 1 µM [2] was 27.7 min.

In the case of `[2H]C([2H])([2H])NC(=O)c1nnc(NC(=O)C2CC2)cc1Nc1ncc2cnn(CC(C)(F)F)c2c1OC` [Example 24, 6-(Cyclopropanecarboxamido)-4-((1-(2,2-difluoropropyl)-7-methoxy-1H-pyrazolo[4,3-c]pyridin-6-yl)amino)-N-(methyl-d3)pyridazine-3-carboxamide], the pIC50 (JAK1-JH2 domain) was 7.66, the pIC50 (TYK2 pathway) was 8.05 and the pIC50 (TYK2) was < 4.70. It also gave a JAK1/TYK2 selectivity (TYK2-JH2 domain) of 79.86, a pIC50 (TYK2-JH2 domain) of 9.57 and a microsomal CLint at 1 µM [2] of 4.16 µL/min/mg. For the same molecule, the half-life at 1 µM [2] was 333 min, the pIC50 (JAK2) was < 4.70 and the pIC50 (JAK1) was < 4.70.
